Test results taken from patent US12528790B2, “Amide derivative having antiviral activity” (Shionogi & Co., Ltd., priority 2020, dated 2026).
Like-named read-outs stand apart in the source and are kept apart here.

Columns and labels:
[1] = test system: RSV B (Wash/18537 strain); experiment: In vitro CPE (CytoPathic Effect) inhibition effect evaluation test, RSV type B; type: cell-based
Procedure: The test sample is diluted in advance to an appropriate concentration with DMSO, and 3-fold series of serial dilutions were prepared on a 384-well plate (0.32 μL/well). HEp-2 cells (CCL-23; ATCC) adjusted at appropriate number (2.4×10^5 cells/mL) in 2% FBS E-MEM (prepared by adding kanamycin and FBS to Eagle's Minimum Essential Medium; Invitrogen) were added at 12.5 μL/well to the 384-well plate previously aliquoted with the test samples. The RSV A2 strain was diluted to an appropriate concentration in a culture medium and added to the 384-well plate containing the test sample at 12.5 μL/well. The culture medium was added additionally to the 384-well plate, and the test was started with 50 μL/well. Control wells were prepared with only virus-free culture medium. The plate was incubated in a 5% CO2 incubator at 37° C. for 4 days, and the plate was then placed at room temperature for 30 minutes. CellTiter-Glo (registered trademark) 2.0 assay (Promega) was added at 15 μL/well, mixed for 30 seconds, and the plate was placed for approximately 1 hour. The luminescent signal was then measured by EnVision (PerkinElmer). The inhibitory effect of the test agents on RSV-induced CPE was calculated as 0% and 100% inhibition rate for each sample concentration based on the level of remaining viable cells by CellTiter-Glo (registered trademark) 2.0, with the EC50 value for each compound calculated by nonlinear regression as the concentration that inhibits RSV-induced CPE by 50%. In the case of evaluation against RSV type B, RSV B (Wash/18537 strain) was infected in the same manner as the type A, cultured for 5 days, and quantitated in the same manner as for the A2 strain.

RSV A2 strain = experiment: In vitro CPE (CytoPathic Effect) inhibition effect evaluation test, RSV type A; type: cell-based
Summary of the method: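 HEp-2 cells (2.4×10^5 cells/mL, 2% FBS E-MEM) were infected with RSV alongside 3-fold compound dilutions and incubated at 37 °C, 4 days for A2 and 5 days for B Wash/18537. Viable cells quantified by CellTiter-Glo 2.0 luminescence; EC50 by nonlinear regression as 50% CPE inhibition.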

[2] = human respiratory syncytial virus, inhibitory effect against RSV type B, CPE inhibition, read-out: EC50
[3] = human respiratory syncytial virus, inhibitory effect against RSV type A (RSV A2 strain), HEp-2 cells, CPE inhibition, read-out: EC50
[4] = inhibitory effect against RSV type B, CPE inhibition, read-out: EC50
[5] = inhibitory effect against RSV type A (RSV A2 strain), HEp-2 cells, CPE inhibition, read-out: EC50

Compound | EC50 [1, 2] | EC50 (RSV A2 strain; [3]) | further results
O=C(NC1(C(=O)O)C2CC3CC(C2)CC1C3)c1cnc(N2CC(C3CCCC3)c3cc(OC4CCN(c5ncc(F)cn5)CC4)ccc32)nc1C(F)(F)F (racemic) [Compound I-486] | – | – | EC50 ([1]; human respiratory syncytial virus, HEp-2, 120 h, HEp-2 cells, RSV B (Wash/18537 strain), 5 days, CellTiter-Glo, read-out: EC50, inhibitory effect against RSV type B (CPE inhibition)): 28 nM; EC50 (RSV A2 strain; human respiratory syncytial virus, HEp-2, 96 h, read-out: EC50, inhibitory effect against RSV type A (CPE inhibition)): 3 nM
O=C(NC1(C(=O)O)C2CC3CC(C2)CC1C3)c1cnc(N2CC(C3CCCC3)c3cc(OC4CCN(CC(F)(F)F)CC4)ccc32)nc1C(F)(F)F (racemic) [Compound I-487] | 10 to 100 nM | < 10 nM | –
COc1cccc(COc2ccc3c(c2)CCN3c2ncc(C(=O)NC3(C(=O)O)CC4CCC3C4)c(C(F)(F)F)n2)c1 (single isomer, unassigned) [Compound I-16] | 10 to 100 nM | < 10 nM | –
Cn1ncc2c1CCC(Oc1ccc3c(c1)C1(CCOCC1)CN3c1ncc(C(=O)NC3(C(=O)O)C4CC5CC(C4)CC3C5)c(C(F)(F)F)n1)C2 (single isomer, unassigned) [Compound I-190] | < 10 nM | < 10 nM | –
O=C(NC1(C(=O)O)C2CC3CC(C2)CC1C3)c1ccc(-c2cn(C3CCC(F)CC3)c3cc(OC4CCN(c5ncc(F)cn5)CC4)ccc23)nc1C(F)(F)F (single isomer, unassigned) [Compound I-397] | < 10 nM | < 10 nM | –
O=C(NC1(C(=O)O)C2CC3CC(C2)CC1C3)c1cnc(-c2cn(C3CCC(F)(F)CC3)c3cc(OC4CC(N5CC(F)(F)C5)C4)ccc23)nc1C(F)(F)F (single isomer, unassigned) [Compound I-412] | 10 to 100 nM | < 10 nM | –
O=C(NC1(C(=O)O)C2CC3CC(C2)CC1C3)c1cnc(-c2cn(C3CCC(F)(F)CC3)c3cc(OC4CC(N5CC(F)(F)C5)C4)ccc23)nc1C(F)(F)F (single isomer, unassigned) [Compound I-413] | – | – | EC50 [1, 4]: 10 to 100 nM; EC50 (RSV A2 strain; [5]): < 10 nM
COC1CCC(n2cc(-c3ncc(C(=O)NC4(C(=O)O)C5CC6CC(C5)CC4C6)c(C(F)(F)F)n3)c3ccc(OC4CCN(c5ncc(F)cn5)CC4)cc32)CC1 (single isomer, unassigned) [Compound I-423] | < 10 nM | < 10 nM | –
O=C(NC1(C(=O)O)C2CC3CC(C2)CC1C3)c1ccc(-c2cn(C3CC4C=CC(C3)O4)c3cc(OC4CCN(c5ncc(F)cn5)CC4)ccc23)nc1C(F)(F)F (single isomer, unassigned) [Compound I-434] | < 10 nM | < 10 nM | –
C/C(=N\OC1CCC(F)(F)CC1)c1ccc2c(c1)C1(CCCCC1)CN2c1ncc(C(=O)NC2(C(=O)O)C3CC4CC(C3)CC2C4)c(C(F)(F)F)n1 (single isomer, unassigned) [Compound I-476] | 100 to 5000 nM | 10 to 100 nM | –
C/C(=N\OC1CC(F)(F)C1)c1ccc2c(c1)C1(CCCCC1)CN2c1ncc(C(=O)NC2(C(=O)O)C3CC4CC(C3)CC2C4)c(C(F)(F)F)n1 (single isomer, unassigned) [Compound I-477] | 100 to 5000 nM | 10 to 100 nM | –
O=C(NC1(C(=O)O)C2CC3CC(C2)CC1C3)c1cnc(-c2cn(C3CCC(F)(F)CC3)c3cc(OC4CCC(OC5CC5)CC4)ccc23)nc1C(F)(F)F (single isomer, unassigned) [Compound I-478] | < 10 nM | < 10 nM | –
O=C(NC1(C(=O)O)C2CC3CC(C2)CC1C3)c1cnc(-c2cn(C3CCC(F)(F)CC3)c3cc(OC4CCC(OC5CC5)CC4)ccc23)nc1C(F)(F)F (single isomer, unassigned) [Compound I-480] | – | – | EC50 [1, 4]: 10 to 100 nM; EC50 (RSV A2 strain; [5]): < 10 nM
O=C(NC1(C(=O)O)C2CC3CC(C2)CC1C3)c1cnc(-c2cn(C3CCC(F)CC3)c3cc(O[C@H]4CC[C@H](N5CC(F)(F)C5)CC4)ccc23)nc1C(F)(F)F (single isomer, unassigned) [Compound I-509] | < 10 nM | < 10 nM | –
O=C(NC1(C(=O)O)C2CC3CC(C2)CC1C3)c1cnc(-c2cn(C3CCC(F)(F)CC3)c3cc(OC4CC(CN5CC(F)(F)C5)C4)ccc23)nc1C(F)(F)F (single isomer, unassigned) [Compound I-516] | 10 to 100 nM | < 10 nM | –
